Results: patent publication US20040235849A1, “Tetrahydroquinoxalines acting as bradykinin antagonists” (priority 2001, published 2004)

Target: T1, human B1 receptor (Homo sapiens, UniProt P46663)
T1 construct: expressed in transfected cells
T1 sequence (P46663 1-353): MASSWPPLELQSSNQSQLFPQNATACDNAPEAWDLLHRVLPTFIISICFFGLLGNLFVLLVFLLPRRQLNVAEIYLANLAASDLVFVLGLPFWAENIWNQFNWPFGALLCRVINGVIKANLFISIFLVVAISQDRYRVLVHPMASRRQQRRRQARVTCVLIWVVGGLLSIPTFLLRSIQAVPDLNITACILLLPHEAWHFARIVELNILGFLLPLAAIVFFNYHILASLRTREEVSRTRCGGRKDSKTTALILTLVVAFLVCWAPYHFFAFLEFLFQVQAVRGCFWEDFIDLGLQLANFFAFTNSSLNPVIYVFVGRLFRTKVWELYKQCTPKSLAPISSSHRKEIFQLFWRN
Test: Functional in vitro assay: B1 receptor antagonism measured via agonist-induced intracellular calcium release in recombinant cell lines
Type: cell-based
Settings: stable cell lines, e.g. CHO or HEK 293, recombinantly expressing the human B1 receptor
Text: 1. Functional in vitro Assay
Agonists such as des-Arg9-BK and des-Arg10-kallidin activate the B1 receptor and lead, via stimulation of phospholipase C, to release of calcium ions from intracellular stores. Antagonists block the activation of the receptor by the agonists and thus also the agonist-dependent stimulation of phospholipase C and the intracellular calcium release induced thereby.
A functional in vitro assay can be carried out with stable cell lines, e.g. CHO or HEK 293, which recombinantly express the human B1 receptor. This entails measuring the activation of the receptor by the agonist indirectly via the intracellular calcium release induced thereby (in microtiter plates with 96, 384 and 1536 wells/plate). The effect of the tested substances can be stated as IC50.

IC50 [nM] | Structure (SMILES)
25 | O=C(CC1C(=O)Nc2ccccc2N1S(=O)(=O)c1cc(Cl)ccc1Oc1ccc(Cl)cc1)NC1CCCCCC1 (centres unmarked) [Example 170]
17 | O=C(CC1C(=O)Nc2ccccc2N1S(=O)(=O)c1ccc(Cl)cc1Cl)NC1CCCCCC1 (centres unmarked) [Example 177]
